Reference: US12599604B2, “Application of JAK inhibitor in kidney disease” (JIANGSU HENGRUI PHARMACEUTICALS CO., LTD., priority 2020, dated 2026)

Experiments:
[1] = system: cisplatin-induced acute kidney injury mouse models; assay: Cisplatin-induced acute kidney disease models (Example 4); assay type: in vivo; conditions: for mortality rate of the mice: day 7 post modeling, same dosage (2.5 mg/kg oral BID per the 4th table), n=10
Method: After arrival and subsequent 7-day acclimation, the animals were randomly grouped. Except the animals in the control group, all other animals needed to be modeled by intraperitoneal injection with cisplatin. From day −3 to day 0, the mice in each group were administered BID. On the day of modeling (day 0), the animals were intraperitoneally injected with cisplatin (15 mg/kg) post administration in the morning. The dosing was continued until day 7. After the modeling, serum and urine samples were collected from the animals on day 4 and day 7, respectively, to measure the blood creatinine, urea nitrogen, and urinary albumin/creatinine (UACR) levels.
(§1) The effects of the compounds on the kidney were then evaluated.

[2] = system: ischemia-reperfusion mouse models; assay: Ischemia-reperfusion models in mice (Examples 1 and 2); assay type: in vivo
Method: After arrival and subsequent 7-day acclimation, the animals were randomly grouped. Except the animals in the control group, all other animals needed to be modeled. On day −1, the mice in each group were administered by gavage twice a day (BID). On the day of surgery (day 0), the mice underwent surgery post administration in the morning. On day 1, the dosing was continued, and on day 2, the endpoint treatment was performed. The mice were subjected to blood collection 24 hours and 48 hours post surgery, and for the endpoint treatment, their kidneys were taken and fixed in a formaldehyde solution for subsequent HE pathological detection.
The specific steps of the ischemia-reperfusion surgery were as follows: the mice were anesthetized with 4% chloral hydrate (10 ml/kg, ip) and secured in a prone position. An incision was made on the back and the right kidney was isolated while ensuring that the adrenal gland and ureter were not injured. The renal artery and renal vein were ligated and the right kidney was excised. The left kidney was isolated, and the renal arterial and venous tracts were carefully separated and clipped for 30 min using a mini bulldog clamp, and then the clamp was loosened. The skin was sutured layer by layer with a needle and thread, and the mice were returned to their cages for recovery.
as §1

[3] = system: LPS-induced acute kidney injury mouse models; assay: Lipopolysaccharide (LPS)-induced acute kidney disease models (Example 3); assay type: in vivo; conditions: FIG. 10
Method: After arrival and subsequent 7-day acclimation, the animals were randomly grouped. Except the animals in the control group, all other animals needed to be modeled by intraperitoneal injection with LPS. From day −2 to day 0, the mice in each group were administered by gavage, BID. On the day of modeling (day 0), the animals were intraperitoneally injected with LPS (12 mpk) post administration in the morning. Blood samples were collected after 24 h, and creatinine and urea nitrogen levels were measured.
as §1

Janus kinase subtype 1 = Janus kinase subtype 1 (Homo sapiens, UniProt P23458); conditions: background statement, no data; cited from earlier work
Janus kinase subtype 1, sequence (P23458 whole entry): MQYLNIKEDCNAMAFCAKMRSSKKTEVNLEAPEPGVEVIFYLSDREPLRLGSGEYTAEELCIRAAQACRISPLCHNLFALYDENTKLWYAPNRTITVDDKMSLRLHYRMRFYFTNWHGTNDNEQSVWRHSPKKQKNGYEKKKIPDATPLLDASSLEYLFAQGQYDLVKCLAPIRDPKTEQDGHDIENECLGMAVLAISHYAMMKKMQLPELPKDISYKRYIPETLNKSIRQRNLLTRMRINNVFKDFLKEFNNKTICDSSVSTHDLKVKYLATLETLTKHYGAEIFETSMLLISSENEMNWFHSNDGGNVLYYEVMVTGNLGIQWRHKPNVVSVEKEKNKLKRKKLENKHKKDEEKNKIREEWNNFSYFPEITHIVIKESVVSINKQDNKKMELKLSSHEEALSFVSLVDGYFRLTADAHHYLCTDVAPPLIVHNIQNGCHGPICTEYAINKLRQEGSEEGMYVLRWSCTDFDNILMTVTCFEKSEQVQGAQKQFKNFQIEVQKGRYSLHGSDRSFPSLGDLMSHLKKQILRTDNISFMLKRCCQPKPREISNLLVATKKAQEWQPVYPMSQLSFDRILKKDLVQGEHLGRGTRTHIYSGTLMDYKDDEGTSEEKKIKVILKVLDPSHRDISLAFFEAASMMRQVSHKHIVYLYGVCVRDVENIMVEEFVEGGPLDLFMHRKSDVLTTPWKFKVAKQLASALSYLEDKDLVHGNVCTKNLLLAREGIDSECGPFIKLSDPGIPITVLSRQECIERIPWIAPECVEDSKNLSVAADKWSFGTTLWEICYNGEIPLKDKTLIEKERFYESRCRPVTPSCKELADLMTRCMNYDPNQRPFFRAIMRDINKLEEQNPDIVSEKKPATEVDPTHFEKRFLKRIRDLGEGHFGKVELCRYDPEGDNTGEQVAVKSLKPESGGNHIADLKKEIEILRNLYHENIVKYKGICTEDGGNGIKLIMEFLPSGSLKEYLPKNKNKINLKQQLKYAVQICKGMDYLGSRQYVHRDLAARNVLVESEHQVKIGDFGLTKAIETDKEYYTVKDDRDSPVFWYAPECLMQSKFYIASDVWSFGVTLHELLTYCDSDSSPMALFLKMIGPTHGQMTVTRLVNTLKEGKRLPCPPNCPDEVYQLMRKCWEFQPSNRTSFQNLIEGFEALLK

| Compound | mortality rate of the mice [1] [%] | kidney/body weight ratio (renal compensatory hypertrophy) ([2]; Example 1, 10 mg/kg oral BID, 48 hours post modeling, FIG. 6) | improvement of kidney/body weight ratio compared with compound B ([2]; Example 1, 10 mg/kg oral BID, FIG. 6) | body weight reduction caused by ischemia-reperfusion ([2]; Example 1, 10 mg/kg oral BID, compared with compound B at the same dosage, FIG. 5) | kidney HE pathological scores ([2]; Example 1, 10 mg/kg oral BID, scores 0-3, FIG. 9) | blood creatinine and urea nitrogen, difference from the model group ([2]; Example 2, 5 mpk and 10 mpk oral BID, FIG. 8) | renal hypertrophy, difference from the model group ([2]; Example 2, 5 mpk oral BID, FIG. 7) | renal hypertrophy caused by ischemia-reperfusion (kidney/body weight ratio) ([2]; Example 2, all dosage groups 2.5 mpk, 5 mpk and 10 mpk oral BID, FIG. 7) | blood creatinine and urea nitrogen levels ([2]; Example 2, all dosage groups 2.5 mpk, 5 mpk and 10 mpk oral BID, FIG. 8) | blood creatinine and urea nitrogen, protective effect compared with compound B ([2]; Example 2, same dosage (5 mg/kg oral BID), FIG. 8) | overall kidney protective effect compared with compound B ([2]; Examples 1 and 2) | overall kidney protective effect (mortality, renal hypertrophy, kidney pathology, blood biochemical parameters) ([2]; Examples 1 and 2, compared with the model group) | kidney protective functions, 5 mpk and 10 mpk compared with 2.5 mpk group ([3]; 5 mpk and 10 mpk oral BID) | blood creatinine and urea nitrogen levels induced by LPS ([3]; different dosage groups (2.5, 5, 10 mg/kg oral BID), 24 h after LPS 12 mpk ip) | blood creatinine and urinary albumin levels induced by cisplatin ([1]; 1.25, 2.5, 5 mg/kg oral BID, cisplatin 15 mg/kg ip, FIG. 11) | blood creatinine, blood urea nitrogen, urinary albumin/creatinine ratio, significance ([1]; 2.5 mpk and 5 mpk oral BID, FIG. 11) | kidney protective functions compared with compound B ([1]; cisplatin models, FIG. 11) | mortality of the mice ([1]; different dosages (1.25, 2.5, 5 mg/kg oral BID), model group 100% dead on day 6) | inhibitory activity against Janus kinase subtype 1 relative to subtype 2 or subtype 3 (selectivity) (Janus kinase subtype 1) |
| --- | --- | --- | --- | --- | --- | --- | --- | --- | --- | --- | --- | --- | --- | --- | --- | --- | --- | --- | --- |
| CCS(=O)(=O)N1CC(CC#N)(n2cc(-c3ncnc4[nH]ccc34)cn2)C1 [Compound B, Baricitinib, reference compound] | 80 | – | – | – | – | – | – | – | – | – | – | – | – | – | – | – | – | – | – |
| COc1nsc(NC(=O)N2C[C@H]3C[C@H](N(C)c4ncnc5[nH]ccc45)C[C@H]3C2)n1 [Compound A, (3 aR,5 s,6aS)—N-(3-methoxy-1,2,4-thiadiazol-5-yl)-5-(methyl(7H-pyrrolo[2,3-d]pyrimidin-4-yl)amino)hexahydrocyclopenta[c]pyrrole-2(1H)-carb oxamide] | 40 | decreased kidney/body weight ratios | had some advantages in improving the kidney/body weight ratios | smaller decrease in body weight | significantly improved the kidney HE pathological scores | showed significant differences compared with the model group | significant difference | could reduce the renal hypertrophy | alleviated the increase in blood creatinine and urea nitrogen levels | stronger protective effect compared with compound B | more excellent kidney protective effect | exhibited kidney protective effects | Stronger kidney protective functions | significantly alleviated the increase in blood creatinine and urea nitrogen levels | dose-dependently alleviated the increase in blood creatinine and urinary albumin levels | showed significant differences | exhibited stronger kidney protective functions | significantly decreased the mortality | stronger inhibitory activity against Janus kinase subtype 1 relative to Janus kinase subtype 2 or Janus kinase subtype 3 |
